Data reported in ChEMBL document CHEMBL5390252, “Imidazo[2,1-b]thiazole based indoleamine-2,3-dioxygenase 1 (IDO1) inhibitor: Structure based design, synthesis, bio-evaluation and docking studies” (Bioorg Med Chem Lett, 2023).

Tested on: not listed separately
Assay: Cytotoxicity against HEK293 cells assessed as cell viability at 10 to 50 uM measured after 24 hrs by alamar blue assay relative to control
Format: toxicity, cell-based
Settings: human, dose 10-50 µM, read-out: Activity

| Structure (SMILES) | viability at 24 h, up to 50 µM [%] |
| --- | --- |
| CC(C)(C)Nc1c(-c2ccc(-c3ccccc3)cc2)nc2sccn12 | 100 |

Target: T1, Indoleamine 2,3-dioxygenase 1 (Homo sapiens, UniProt P14902)
Assay: Inhibition of human IDO1 using L-tryptophan as substrate assessed as reduction in N-formyl kynurenine formation at 200 uM by UV-visible spectroscopic analysis relative to control
Settings: not given
Target sequence in this assay (P14902 whole entry, looked up): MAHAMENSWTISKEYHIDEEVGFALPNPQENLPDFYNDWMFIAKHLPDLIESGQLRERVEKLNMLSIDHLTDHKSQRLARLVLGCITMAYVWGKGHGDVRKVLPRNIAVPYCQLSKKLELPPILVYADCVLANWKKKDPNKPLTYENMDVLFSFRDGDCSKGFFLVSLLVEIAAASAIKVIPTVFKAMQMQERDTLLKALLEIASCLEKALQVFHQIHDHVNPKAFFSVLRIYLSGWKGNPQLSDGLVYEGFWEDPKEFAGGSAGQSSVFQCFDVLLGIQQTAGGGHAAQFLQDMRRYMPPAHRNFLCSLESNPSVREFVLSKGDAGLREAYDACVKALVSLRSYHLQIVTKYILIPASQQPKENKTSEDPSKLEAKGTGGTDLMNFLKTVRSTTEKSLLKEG

| Structure (SMILES) | inhibition [%] |
| --- | --- |
| C[C@H]1c2[nH]c3ccccc3c2C[C@]2(C)C(=O)N(C)C(=S)N12 | 29 |

Target: T1, Indoleamine 2,3-dioxygenase 1
Settings: dose 1.0 mM
Target sequence in this assay (P14902 whole entry, looked up): as above

| Structure (SMILES) | inhibition [%] |
| --- | --- |
| c1ccc2c(c1)[nH]c1cnccc12 | 17 |

Tested on: HEK293
Assay: Cytotoxicity against HEK293 cells assessed as reduction in cell viability at 100 uM measured after 24 hrs by alamar blue assay relative to control
Format: toxicity, cell-based
Settings: human, hek293, 24 h

| Structure (SMILES) | Activity |
| --- | --- |
| CC(C)(C)Nc1c(-c2ccc(-c3ccccc3)cc2)nc2sccn12 | ~ 85% |

Target: T1, Indoleamine 2,3-dioxygenase 1
Assay: Inhibition of human IDO1 using L-tryptophan as substrate assessed as reduction in N-formyl kynurenine formation by UV-visible spectroscopic analysis
Settings: not given
Target sequence in this assay (P14902 whole entry): as the sequence (P14902 whole entry, looked up) above

| Structure (SMILES) | IC50 [µM] |
| --- | --- |
| CC(C)(C)CC(C)(C)Nc1c(-c2ccncc2)nc2sccn12 | 691 |
| COc1ccc(-c2nc3cc(C)ccn3c2NC(C)(C)C)cc1O | 287 |
| CC(C)(C)CC(C)(C)Nc1c(-c2ccc(C(F)(F)F)cc2)nc2sccn12 | 1020 |
| Cc1n[nH]c2c1[C@@H](c1ccc(F)c(F)c1)c1c(N)n[nH]c1O2 | 0.151 |
| COc1ccc(-c2nc3sccn3c2NCCN2CCOCC2)cc1O | 73 |
| CC(C)(C)Nc1c(-c2ccccc2)nc2sccn12 | 43 |
| CC(C)(C)CC(C)(C)Nc1c(-c2ccccc2)nc2sccn12 | 465 |
| O[C@H](c1c(C2CC2)c(Cl)cc2cncn12)C1CC2CCC1CC2 (stereo partly specified) | 0.0096 |
| c1ccc(-c2ccc(-c3nc4sccn4c3NCCN3CCOCC3)cc2)cc1 | 106 |
| CC(C)(C)Nc1c(-c2ccncc2)nc2sccn12 | 908 |
| CC(C)(C)CC(C)(C)Nc1c(-c2ccc(-c3ccccc3)cc2)nc2sccn12 | 47 |
| COc1ccc(-c2nc3sccn3c2NC(C)(C)C)cc1O | 13 |
| CC(C)(C)Nc1c(-c2ccc(C(F)(F)F)cc2)nc2sccn12 | 1290 |
| O=S(=O)(Nc1cccc2cnccc12)c1ccc2c(c1)OCCO2 | 0.056 |
| COc1cccc(-c2nc3sccn3c2NC(C)(C)C)c1 | 281 |
| COc1ccc(-c2nc3sccn3c2NC(C)(C)CC(C)(C)C)cc1O | 25 |
| CC(C)(C)Nc1c(-c2ccc(-c3ccccc3)cc2)nc2sccn12 | 23 |
| CC(C)(C)CC(C)(C)Nc1c(-c2cccc(C#N)c2)nc2sccn12 | 477 |
| CC(C)(C)Nc1c(-c2ccc3c(c2)OCO3)nc2sccn12 | 1450 |
| O=C(Cc1ccccc1)Nc1ccc(CCOc2ccccc2-c2cnc[nH]2)cc1 | 0.028 |

Target: T1, Indoleamine 2,3-dioxygenase 1
Assay: Inhibition of human IDO1 using L-tryptophan as substrate assessed as reduction in N-formyl kynurenine formation by measuring inhibition constant by UV-visible spectroscopic analysis
Settings: not given
Target sequence in this assay (P14902 whole entry): as the sequence (P14902 whole entry, looked up) above

| Structure (SMILES) | Ki [nM] |
| --- | --- |
| CCNCCc1c[nH]c2c1C(=O)C(c1cccnc1)=CC2=O | 160 |

Tested on: not listed separately
Assay: Cytotoxicity against HEK293 cells assessed as cell viability at 10 to 100 uM measured after 24 hrs by alamar blue assay relative to control
Format: toxicity, cell-based
Settings: human, dose 10-100 µM, read-out: Activity

| Structure (SMILES) | viability at 24 h, up to 100 µM [%] |
| --- | --- |
| COc1ccc(-c2nc3sccn3c2NC(C)(C)C)cc1O | 100 |
